{"source": "patent US9545388B2", "about": "“Benzenetricarboxylic acid and methods of use” (GEORGETOWN UNIVERSITY, priority 2012, dated 2017)", "key": {"MDA-MB-231 cells": {"system": "MDA-MB-231 cells", "assay": "dose dependent growth inhibition of BTA in MDA-MB-231 cells", "format": "cell-based, human", "conditions": "MBA-MD-231 cells, BTA dose response (FIG. 2B)", "protocol": "Cells were grown in Dulbecco's modified Eagle's medium (DMEM, 5 mM glucose, with glutamine and pyruvate from Invitrogen; Carlsbad, Calif.) and supplemented with 10% fetal calf serum (FCS). Early passage cell lines or frozen pellets were used for screening of CIC expression levels (FIG. 1A). All the reagents for the study of complex I activity were purchased from Sigma-Aldrich (St. Louis, Mo.). The CIC specific shRNA vectors were purchased from Origene Technologies (Rockville, Md.). The vectors expressing human CIC untagged or Flag-Myc epitope tagged were also from Origene. The anti-CIC antibody was obtained from Santa Cruz Biotech (Santa Cruz, Calif.), employed at 1:1000 dilution in immuno-blot and at 1:100 in immuno-fluorescence; the anti-mHsp70 and anti-mitofilin antibody were from Novus Biological (Littleton, Colo.) employed at 1:500 in immuno-fluorescence and 1:1000 in immuno-blot; for the LC3 immuno-blot, a mixture of two antibodies was used each at 1:1000 dilution (Novus Biological). The LAMP-1 antibody was from Abcam (Cambridge, UK). The sequences of primers used were: the human cytochome c oxidase: forward: 5′-[…]-3′ (SEQ. ID NO: 1); Reverse:5′ […]-3′ (SEQ. ID NO: 2). The zebrafish NADH-dehydrogenase: forward: 5′-[…]-3′ (SEQ. ID NO: 3); reverse:5′ […]-3′ (SEQ. ID NO: 4). The zebrafish p53: forward: 5′-ACATGA […]-3′ (SEQ. ID NO: 5); Reverse: 5′ […] 3′ (SEQ. ID NO: 6)."}, "H1299 cells [1]": {"system": "H1299 cells", "assay": "cell viability by trypan blue exclusion in H1299 cells", "format": "cell-based, human", "conditions": "1 mM BTA, trypan blue exclusion (FIG. 2D)", "protocol": "Negative values are due to subtraction of background rates. […] Cell viability was assessed with trypan blue exclusion.\nCells were grown in Dulbecco's modified Eagle's medium (DMEM, 5 mM glucose, with glutamine and pyruvate from Invitrogen; Carlsbad, Calif.) and supplemented with 10% fetal calf serum (FCS). Early passage cell lines or frozen pellets were used for screening of CIC expression levels (FIG. 1A). All the reagents for the study of complex I activity were purchased from Sigma-Aldrich (St. Louis, Mo.). The CIC specific shRNA vectors were purchased from Origene Technologies (Rockville, Md.). The vectors expressing human CIC untagged or Flag-Myc epitope tagged were also from Origene. The anti-CIC antibody was obtained from Santa Cruz Biotech (Santa Cruz, Calif.), employed at 1:1000 dilution in immuno-blot and at 1:100 in immuno-fluorescence; the anti-mHsp70 and anti-mitofilin antibody were from Novus Biological (Littleton, Colo.) employed at 1:500 in immuno-fluorescence and 1:1000 in immuno-blot; for the LC3 immuno-blot, a mixture of two antibodies was used each at 1:1000 dilution (Novus Biological). The LAMP-1 antibody was from Abcam (Cambridge, UK). The sequences of primers used were: the human cytochome c oxidase: forward: 5′-[…]-3′ (SEQ. ID NO: 1); Reverse:5′ […]-3′ (SEQ. ID NO: 2). […]"}, "[2]": {"system": "breast cancer MDA-MB-231 cells", "assay": "tumor xenograft, breast cancer MDA-MB-231 cells in nude mice", "format": "in vivo, female athymic balbc/nude mice", "conditions": "MDA-MB-231 xenograft, BTA 26 mg/kg intra-peritoneal three times a week, single agent", "method": "(§2) To produce tumor xenografts, 5×10^6 cells were resuspended in PBS and injected subcutaneously in the flanks of female nude mice. […] Mice were pre-treated twice prior to the inoculation of tumor cell lines. Once detectable tumors started to form, their size was measured with a caliper in three dimensions. Serial measurements were made at two-three day intervals after the identification of the initial cellular mass to determine growth curves in vivo. Tumor volume was calculated using the formula for a prolate spheroid: volume=(4/3)×a^2b, where a is the width and b is the length. All animals were sacrificed when the tumors exceeded 1.5 cm. At the completion of experiments, tumors were excised, weighed and statistical significance of differences in tumor volume were made using two factor repeated measures analysis of variance followed by Fisher's last significant difference test for multiple comparisons."}, "[3]": {"system": "lung cancer H1299 cell lines", "assay": "tumor xenograft, lung cancer H1299 cells in nude mice", "format": "in vivo, female athymic balbc/nude mice", "conditions": "BTA 26 mg/kg intra-peritoneal three times a week", "method": "as §2"}, "[4]": {"system": "bladder cancer cells derived from T24 cells", "assay": "tumor xenograft, bladder cancer cells derived from T24 in nude mice", "format": "in vivo, female athymic balbc/nude mice", "conditions": "BTA 26 mg/kg intra-peritoneal three times a week", "method": "as §2"}, "[5]": {"protocol": "To produce tumor xenografts, 5×10^6 cells were resuspended in PBS and injected subcutaneously in the flanks of female nude mice. For drug treatments, mice were randomized to receive either PBS or a PBS solution of BTA at a concentration 26 mg/kg which was administered via intra-peritoneal route three times a week. Mice were pre-treated twice prior to the inoculation of tumor cell lines. Once detectable tumors started to form, their size was measured with a caliper in three dimensions. Serial measurements were made at two-three day intervals after the identification of the initial cellular mass to determine growth curves in vivo. Tumor volume was calculated using the formula for a prolate spheroid: volume=(4/3)×a^2b, where a is the width and b is the length. All animals were sacrificed when the tumors exceeded 1.5 cm. At the completion of experiments, tumors were excised, weighed and statistical significance of differences in tumor volume were made using two factor repeated measures analysis of variance followed by Fisher's last significant difference test for multiple comparisons. The trial administration of BTA to explore its toxic effects, was conducted on 8 non immuno-compromised mice, randomized in two groups, and injected for five consecutive months. Animals were monitored once a week for the presence of signs of disease, particularly neurological disturbances or weight loss, and they were weighted periodically."}, "[6]": {"system": "glucose-derived fatty acid (FA) synthesis", "assay": "metabolism of D-[1,6-13C2] glucose into fatty acids via NMR mass spectrometry", "format": "cell-based", "excerpt": "The molecular mechanisms by which CIC affects proliferation were examined. The function of CIC has been primarily linked to glucose-derived fatty acid (FA) synthesis, because of its role in citrate export. Therefore, the metabolism of D-[1,6-^13C2] glucose via NMR mass spectrometry was studied. […] Thus, depletion of lipids unlikely represents the only mechanism by which CIC inhibition affects tumor growth."}, "lactate": {"system": "lactate", "assay": "lactate levels in treated cells", "format": "cell-based", "protocol": "(§1) The concentration of citrate, lactate, isocitrate, and malate were assessed using specific kits from BioVision (Milpitas, Calif.). Cellular ATP levels were determined via the ATP kit (Promega; Fitchburg, Wis.), while oxygen consumption rates were measured using the BD oxygen biosensor systems (OBS) from BD Bioscience (Franklin Lakes, N.J.). Triplicate samples of 50,000 cells were seeded onto 96-well OBS plates. The number of cells was determined at each time point by sampling cells seeded into side-by-side plates. Fluorescence was measured from the bottom of the well every 24 h and measurements were normalized by subtracting the reading from the same well prior to the addition of the cells (blank). For measurement of reactive oxygen species (ROS), H2DCFDA was used (Invitrogen). Mitochondrial mass was assessed by using mitotracker green (Invitrogen), as per manufacturer instructions, or nonyl acridine orange at a final concentration of 300 nM, followed by analysis by flow cytometry. Mitochondrial membrane potential (MMP) was studied with the JC1 assay kit from Cayman Chemical (Ann Arbor, Mich.)."}, "[7]": {"assay": "cell death by trypan blue exclusion in BTA-treated cells with or without rescue agents", "format": "cell-based"}, "H1299 cells [8]": {"system": "H1299 cells", "assay": "cell cycle analysis of H1299 cells under glucose restriction", "format": "cell-based, human", "conditions": "glucose restriction (2 mM Glucose), 1 mM BTA", "protocol": "ATP (Panel B) and Oxygen consumption levels (Panel C) in cells cultured in 5 mM glucose and mock treated (DMSO, Control) or treated with BTA, or in cells expressing CIC or CIC-DN, 16 hours after treatments. […] The percentages of cells distributed in the G1-, S-, or G2-phases of the cells cycle are shown. Apoptotic cells are identified as the Sub-G1 (SG) population. […] Cells were stained with anti-Flag (green, panels 1 and 4) and anti-LC3 (red, panels 2 and 5) antibodies, and counterstained with DAPI. Merged images are shown in panels 3 and 6. The results of these immunofluorescence experiments were confirmed with cellular sub-fractionation experiments shown in Panel F. Cytoplasmic (c) and mitochondrial (m) fractions derived from naïve 293T cells (lanes 1,2) or 293T cells expressing CIC (lanes 3,4) or CIC-DN (lanes 5,6) or treated with BTA (lanes 7,8), were probed with anti-CIC, anti-LC3, or anti-mitofilin antibodies, as indicated. The two arrows in the LC3 blot indicate cytosolic (-I) or activated (-II) LC3 forms. […] All images shown were derived from the same autoradiogram at identical times of exposures, but lanes in between samples of interest were eliminated. […] The anti-mitofilin, anti-p62 (employed as a general autophagic marker), anti-CIC, or anti LC3 specific immuno-blots are shown."}, "LC3": {"system": "LC3", "assay": "immuno-fluorescence and cellular sub-fractionation for LC3 recruitment to mitochondria", "format": "cell-based", "protocol": "ATP (Panel B) and Oxygen consumption levels (Panel C) in cells cultured in 5 mM glucose and mock treated (DMSO, Control) or treated with BTA, or in cells expressing CIC or CIC-DN, 16 hours after treatments. […] The percentages of cells distributed in the G1-, S-, or G2-phases of the cells cycle are shown. Apoptotic cells are identified as the Sub-G1 (SG) population. […] Cells were stained with anti-Flag (green, panels 1 and 4) and anti-LC3 (red, panels 2 and 5) antibodies, and counterstained with DAPI. Merged images are shown in panels 3 and 6. […]\nCells were grown in Dulbecco's modified Eagle's medium (DMEM, 5 mM glucose, with glutamine and pyruvate from Invitrogen; Carlsbad, Calif.) and supplemented with 10% fetal calf serum (FCS). […] The anti-CIC antibody was obtained from Santa Cruz Biotech (Santa Cruz, Calif.), employed at 1:1000 dilution in immuno-blot and at 1:100 in immuno-fluorescence; the anti-mHsp70 and anti-mitofilin antibody were from Novus Biological (Littleton, Colo.) employed at 1:500 in immuno-fluorescence and 1:1000 in immuno-blot; for the LC3 immuno-blot, a mixture of two antibodies was used each at 1:1000 dilution (Novus Biological). […]"}, "mitochondrial mass": {"system": "mitochondrial mass", "assay": "mitochondrial content by mitofilin and Nonyl-Acridine Orange (NOA)", "format": "cell-based", "protocol": "as §1"}, "CIC": {"target": "T1, CIC (Homo sapiens, UniProt P53007)", "T1 construct": "citrate levels in cells expressing endogenous CIC (nM/well) were assessed in 293T cell lines harboring the pcDNA/TO vector; endogenous in cells; host or cells: 293T cells harbouring the empty pcDNA/TO vector", "T1 sequence (P53007 14-311)": "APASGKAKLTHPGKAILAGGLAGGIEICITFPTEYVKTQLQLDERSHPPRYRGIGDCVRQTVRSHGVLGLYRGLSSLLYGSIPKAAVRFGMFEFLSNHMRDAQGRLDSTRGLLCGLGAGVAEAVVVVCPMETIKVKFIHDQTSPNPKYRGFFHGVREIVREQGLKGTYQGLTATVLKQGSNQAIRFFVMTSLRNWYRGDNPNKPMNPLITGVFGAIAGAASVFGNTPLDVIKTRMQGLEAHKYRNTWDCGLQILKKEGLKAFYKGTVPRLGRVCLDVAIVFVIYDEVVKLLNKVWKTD", "conditions": "in vivo; cited from earlier work"}}}
{"smiles": "O=C(O)c1cccc(C(=O)O)c1C(=O)O", "note": "[BTA, 1,2,3-benzenetricarboxylic acid]", "values": [{"measurement": "proliferation rates", "setting": "MDA-MB-231 cells", "result": "decreased proliferation rates in a dose-dependent manner"}, {"measurement": "cell growth / viability", "setting": "H1299 cells [1]", "result": "growth inhibition"}, {"measurement": "anti-cancer activity (tumor volume)", "setting": "[2]", "result": "exhibited anti-cancer activity"}, {"measurement": "anti-cancer activity (tumor volume)", "setting": "[3]", "result": "exhibited anti-cancer activity"}, {"measurement": "anti-cancer activity (tumor volume)", "setting": "[4]", "result": "exhibited anti-cancer activity"}, {"measurement": "evidence of illness or toxicity", "setting": "[5]; mouse, in vivo", "result": "no evidence of illness or toxicity"}, {"measurement": "evidence of toxicity", "setting": "[5]; mouse, in vivo", "result": "without showing any evidence of toxicity"}, {"measurement": "body weight", "setting": "[5]; non immuno-compromised mice, BTA twice a week for five consecutive months", "result": "small but statistically significant reduction of the body weight"}, {"measurement": "total FA levels", "setting": "[6]; 16 hours after BTA treatment", "result": "modestly reduced"}, {"measurement": "ability of cells to convert glucose into FA", "setting": "[6]; D-[1,6-13C2] glucose", "result": "severely reduced the ability of cells to convert glucose into FA"}, {"measurement": "total FA levels", "setting": "[6]; later time points after BTA treatment", "result": "increased"}, {"measurement": "levels of glucose-derived lactate", "setting": "lactate", "result": "enhanced the levels of glucose-derived lactate"}, {"measurement": "viability of treated cells", "setting": "[7]; cells treated with BTA", "result": "loss of viability"}, {"measurement": "apoptosis (Sub-G1 population)", "setting": "H1299 cells [8]", "result": "induction of apoptosis"}, {"measurement": "LC3-II in the mitochondrial fraction", "setting": "LC3; 293T cells treated with BTA, sub-fractionation immuno-blot (FIG. 5F lane 8)", "result": "enrichment of LC3-II in the mitochondria"}, {"measurement": "recruitment of active-lipidated LC3 and lysosomes to the mitochondria", "setting": "LC3; cells treated with BTA", "result": "recruitment of the autophagic machinery"}, {"measurement": "mitochondrial quantity (mitofilin)", "setting": "mitochondrial mass; time course following BTA treatment (FIG. 5G)", "result": "reduction of mitochondrial quantity as a function of time"}, {"measurement": "CIC-dependent transport of citrate", "setting": "CIC", "result": "suppresses CIC-dependent transport of citrate"}]}
{"smiles": "Cn1cnc(N)c2ncnc1-2", "note": "[Compound 3MA, 3-Methyladenine, reference compound]", "values": [{"measurement": "mitochondrial amount (NOA) in BTA-treated cells", "setting": "mitochondrial mass; 5 mM 3MA added to BTA-treated cells (FIG. 6A)", "result": "restored mitochondrial amount"}]}
{"smiles": "CC(=O)N[C@@H](CS)C(=O)O", "note": "[NAC, N-acetyl-cysteine]", "values": [{"measurement": "prevention of loss of viability in cells treated with BTA", "setting": "[7]; 5 mM methyl-pyruvate or 2 mM NAC added to BTA-treated cells (FIG. 5A)", "result": "partially prevented loss of viability"}]}
{"smiles": "CCCCCCCCCCCCCCCC(=O)O", "note": "[palmitic acid]", "values": [{"measurement": "rescue of proliferation of BTA-treated cells", "setting": "[7]; incubation of BTA-treated cells with palmitic acid", "result": "not sufficient to rescue proliferation"}]}
